Strand notation (5' to 3'): a small letter for the sugar, then the base; units joined by * are phosphorothioate-linked, units joined directly phosphodiester-linked; [ ] holds rarer units or linkages, { } end groups; capitals alone tell only the bases. e = 2'-O-(2-methoxyethyl) (MOE); [5mC] = 5-methylcytosine; d = 2'-deoxy (DNA)
Test system: human PKK mRNA
Experiment: Antisense inhibition of human PKK mRNA in HepaRG cells, 5,000 nM (Example 2)
Type: cell-based
How it was run: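 Percent inhibition of PKK mRNA is reported relative to untreated cells, after adjustment for total RNA by RIBOGREEN. Gapmers of 16–20 nucleosides with 2′-MOE wings were delivered at 5,000 nM by electroporation into HepaRG cells and left for roughly 24 hours before RNA isolation.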

[1] = HepaRG cells, 5,000 nM antisense oligonucleotide, 5-10-5 gapmers, Table 16
[2] = HepaRG cells, 5,000 nM antisense oligonucleotide, 5-10-5 gapmers, Table 17
[3] = Table 9 experiment, HepaRG cells, 20,000 cells per well, electroporation with 5,000 nM antisense oligonucleotide, approx. 24 hours, PKK mRNA by RT-PCR (RTS3454), relative to untreated control cells
[4] = Table 10 experiment, HepaRG cells, 20,000 cells per well, electroporation with 5,000 nM antisense oligonucleotide, approx. 24 hours, PKK mRNA by RT-PCR (RTS3454), relative to untreated control cells
[5] = HepaRG cells, electroporation with 5,000 nM antisense oligonucleotide, approximately 24 hours, PKK mRNA by RT-PCR (RTS3454), relative to untreated control cells, Table 6 experiment
[6] = Table 13, human PKK mRNA in HepaRG cells, 5-10-5 gapmers
[7] = human PKK mRNA in HepaRG cells, 5-10-5 gapmers, Table 14
[8] = HepaRG cells, electroporation with 5,000 nM antisense oligonucleotide, approximately 24 hours, PKK mRNA by RT-PCR (RTS3454), relative to untreated control cells, Table 5 experiment

Substance: 547656 (e[5mC]*eA*eA*eT*eA*dT*d[5mC]*dA*d[5mC]*dT*dG*dT*d[5mC]*d[5mC]*dT*eA*eT*eA*eA*e[5mC]; antisense) [compound 547656]
- % inhibition (human PKK mRNA, HepaRG cells, 5-10-5 motif oligonucleotides targeting SEQ ID NO: 1 and 10): 42%

Substance: 546275 (eG*eA*eA*e[5mC]*e[5mC]*dA*dT*d[5mC]*d[5mC]*dA*dT*dA*dG*dA*dT*eA*eA*eT*e[5mC]*eT; antisense) [compound 546275]
- % inhibition (Table 8, HepaRG cells, electroporation with 5,000 nM antisense oligonucleotide, approx. 24 hours, PKK mRNA by RT-PCR (RTS3454), relative to untreated control cells): 87%

Substance: 546917 (eA*eT*e[5mC]*eA*e[5mC]*dT*dG*dT*d[5mC]*d[5mC]*dT*dA*dT*dA*dA*e[5mC]*eT*eA*eT*eT; antisense) [compound 546917]
- % inhibition [1]: 63%

Substance: 547730 (eG*eA*eT*eT*eG*dG*dT*dG*dG*dT*dG*dG*dG*dA*dT*eT*eG*eG*eT*eG; antisense) [compound 547730]
- % inhibition [2]: 60%

Substance: 546329 (antisense e[5mC]*e[5mC]*eT*eT*e[5mC]*dG*dA*dG*dA*dA*dG*d[5mC]*d[5mC]*d[5mC]*d[5mC]*eA*eT*e[5mC]*e[5mC]*eG) [compound 546329]
- % inhibition [3]: 18%
- % inhibition [4]: 8%

Substance: 547334 (antisense eA*eA*eT*eG*eT*d[5mC]*dT*d[5mC]*dG*dA*dT*dG*dG*d[5mC]*dA*eA*eG*e[5mC]*eA*e[5mC]) [compound 547334]
- % inhibition [5]: 74%

Substance: 546844 (eG*eT*e[5mC]*e[5mC]*eT*dA*dT*dA*dT*d[5mC]*dA*d[5mC]*dT*dG*dT*e[5mC]*e[5mC]*eT*eA*eT; antisense) [compound 546844]
- % inhibition [6]: 75%

Substance: 547582 (eT*eA*eT*eA*eT*d[5mC]*dA*d[5mC]*dT*dG*dT*d[5mC]*d[5mC]*dT*dA*eT*eA*eA*e[5mC]*eT; antisense) [compound 547582]
- % inhibition [6]: 22%

Substance: 546498 (e[5mC]*e[5mC]*eA*eT*eG*d[5mC]*dA*dT*dA*d[5mC]*dT*d[5mC]*dG*d[5mC]*d[5mC]*eT*eT*eT*eG*eT; antisense) [compound 546498]
- % inhibition (HepaRG cells, electroporation, 5,000 nM antisense oligonucleotide, approx. 24 hours, primer probe set RTS3454, relative to untreated control cells, Table 12): 65%

Substance: 547610 (antisense eT*eG*eT*eA*eA*d[5mC]*dA*dG*dT*dA*dT*d[5mC]*dA*d[5mC]*dT*eG*eT*eA*e[5mC]*eT) [compound 547610]
- % inhibition [7]: 45%

Substance: 547613 (antisense e[5mC]*eT*eA*eT*eA*dT*d[5mC]*dA*d[5mC]*dT*dG*dT*dA*d[5mC]*d[5mC]*eT*eG*eT*eA*eA) [compound 547613]
- % inhibition [7]: 39%

Substance: 547278 (antisense eA*e[5mC]*eA*e[5mC]*eA*dA*dT*dT*dG*d[5mC]*dT*dT*d[5mC]*dT*dT*eG*eG*eA*eG*eG) [compound 547278]
- % inhibition [8]: 70%

Substance: 547347 (antisense eA*e[5mC]*eT*eG*e[5mC]*dT*dA*dA*d[5mC]*d[5mC]*dT*dT*dA*dG*dA*e[5mC]*eA*e[5mC]*eA*eT) [compound 547347]
- % inhibition [5]: 82%

Substance: 547496 (antisense eA*eT*eG*e[5mC]*eT*dG*dG*dT*dG*dA*d[5mC]*dT*dG*d[5mC]*dA*eT*e[5mC]*eT*eG*eA) [compound 547496]
- % inhibition (HepaRG cells, electroporation, 5,000 nM antisense oligonucleotide, approx. 24 hours, primer probe set RTS3454, relative to untreated control cells, Table 11): 80%

Substance: 547702 (antisense eA*e[5mC]*eA*eT*e[5mC]*dA*d[5mC]*dT*dG*dT*dA*d[5mC]*d[5mC]*dT*dA*eT*eA*eA*e[5mC]*eT) [compound 547702]
- % inhibition [1]: 44%

Substance: 547562 (e[5mC]*eT*eT*eT*e[5mC]*dT*dT*dG*dA*dG*dA*d[5mC]*dA*dA*dT*e[5mC]*e[5mC]*e[5mC]*eT*eT; antisense) [compound 547562]
- % inhibition [6]: 59%

Substance: 547022 (eA*eT*eT*eG*eG*dT*dG*dG*d[5mC]*dG*dG*dG*dA*dT*d[5mC]*eG*eG*eT*eG*eG; antisense) [compound 547022]
- % inhibition [2]: 69%

Substance: 548734 (DNA eT*e[5mC]*eA*e[5mC]*dT*dG*dT*dA*d[5mC]*dT*dA*dG*dT*dT*eT*e[5mC]*e[5mC]; antisense) [compound 548734]
- % inhibition (human PKK mRNA, HepaRG cells, 5,000 nM antisense oligonucleotide, Table 18): 51%

Substance: 547272 (e[5mC]*eA*e[5mC]*eT*eT*dA*dA*dA*dA*dA*dT*dG*dA*dA*d[5mC]*eG*eG*eT*e[5mC]*eT; antisense) [compound 547272]
- % inhibition [8]: 82%

Substance: 547448 (antisense eT*eT*eA*eT*eT*dT*dG*dT*dG*dA*dG*dA*dA*dA*dG*eG*eT*eG*eT*eA) [compound 547448]
- % inhibition [3]: 75%
- % inhibition [4]: 83%

Source: patent US11840686B2, “Modulation of prekallikrein (PKK) expression” (Ionis Pharmaceuticals, Inc., priority 2013, dated 2023)
